This note sets out measurements from PubChem BioAssay AID1259407 (Chemical Carcinogenesis Research Information System (CCRIS), 2018).

Each structure is given as a SMILES string. Active and inactive are the calls of the source. How the calls were made is not given here.

This data set deals with CCRIS mutagenicity, Ames/micronucleus/aberration tests. Nature of the data set: CCRIS mutagenicity studies.
[1] abbreviates: Test System: AMES SALMONELLA TYPHIMURIUM, Strain/Indicator: TA98, Metabolic Activation: NONE, Method: STANDARD PLATE.
The mark [2] stands for this setting: Test System: AMES SALMONELLA TYPHIMURIUM, Strain/Indicator: TA98, Metabolic Activation: RAT, LIVER, S-9, AROCLOR 1254, Method: STANDARD PLATE.
Setting [3] is: Test System: AMES SALMONELLA TYPHIMURIUM, Strain/Indicator: TA100, Metabolic Activation: NONE, Method: STANDARD PLATE.
Where [4] appears, read: Test System: AMES SALMONELLA TYPHIMURIUM, Strain/Indicator: TA100, Metabolic Activation: RAT, LIVER, S-9, AROCLOR 1254, Method: STANDARD PLATE.
Where [5] appears, read: Test System: AMES SALMONELLA TYPHIMURIUM, Strain/Indicator: TA1535, Metabolic Activation: NONE, Method: PREINCUBATION
[6] abbreviates: Test System: AMES SALMONELLA TYPHIMURIUM, Strain/Indicator: TA1535, Metabolic Activation: NONE, Method: STANDARD PLATE.
Where [7] appears, read: Test System: AMES SALMONELLA TYPHIMURIUM, Strain/Indicator: TA1537, Metabolic Activation: NONE, Method: PREINCUBATION
Where [8] appears, read: Test System: AMES SALMONELLA TYPHIMURIUM, Strain/Indicator: TA1537, Metabolic Activation: NONE, Method: STANDARD PLATE.
[9] abbreviates: Test System: AMES SALMONELLA TYPHIMURIUM, Strain/Indicator: TA1537, Metabolic Activation: RAT, LIVER, S-9, AROCLOR 1254, Method: STANDARD PLATE.
Where [10] appears, read: Test System: AMES SALMONELLA TYPHIMURIUM, Strain/Indicator: TA1538, Metabolic Activation: NONE, Method: PREINCUBATION

As to `Oc1ccc(Cl)cc1`, the mutagenic call reads like this: (Test System: AMES SALMONELLA TYPHIMURIUM, Strain/Indicator: TA97, Metabolic Activation: NONE, Method: STANDARD PLATE) “inactive; negative”; (Test System: AMES SALMONELLA TYPHIMURIUM, Strain/Indicator: TA97, Metabolic Activation: RAT, LIVER, S-9, AROCLOR 1254, Method: STANDARD PLATE) “active; positive”; under setting [1], “inactive; negative”; under setting [2], “active; positive”; (Test System: AMES SALMONELLA TYPHIMURIUM, Strain/Indicator: TA98, Metabolic Activation: S-9, Method: STANDARD PLATE) “active; positive”; under setting [3], “inactive; negative”. For the same compound, the mutagenic call reads like this: under setting [4], “active; positive”; (Test System: AMES SALMONELLA TYPHIMURIUM, Strain/Indicator: TA100, Metabolic Activation: S-9, Method: STANDARD PLATE) “inactive; negative”; (Test System: AMES SALMONELLA TYPHIMURIUM, Strain/Indicator: TA104, Metabolic Activation: NONE, Method: STANDARD PLATE) “inactive; negative”; (Test System: AMES SALMONELLA TYPHIMURIUM, Strain/Indicator: TA104, Metabolic Activation: RAT, LIVER, S-9, AROCLOR 1254, Method: STANDARD PLATE) “inactive; negative”.

In the case of `Cc1c2ccccc2c2ccc3cccc4ccc1c2c43`, the mutagenic call (Test System: AMES SALMONELLA TYPHIMURIUM, Strain/Indicator: TA100, Metabolic Activation: RAT, NADPH-FORTIFIED HOMOGENIZED HEPATOCYTES, AROCLOR 1254, Method: PREINCUBATION) was “active; positive” and the mutagenic call (Test System: CHINESE HAMSTER V-79, Strain/Indicator: V-79/8-AZAGUANINE, Metabolic Activation: HAMSTER, EMBRYO, CELL-MEDIATED, Method: STANDARD PLATE) was “active; positive”.

Regarding `CC1=CC(=O)C=C2CC[C@@H]3[C@H](CC[C@]4(C)C(=O)CC[C@@H]34)[C@@]12C`, the mutagenic call by setting is: (End Point: IN VITRO CHROMOSOMAL ABERRATIONS, Test System: HUMAN PERIPHERAL LYMPHOCYTES, Metabolic Activation: NONE) “inactive; negative”; (End Point: IN VITRO CHROMOSOMAL ABERRATIONS, Test System: HUMAN PERIPHERAL LYMPHOCYTES, Metabolic Activation: RAT, LIVER, S-9, AROCLOR 1254) “inactive; negative”; (End Point: IN VIVO MICRONUCLEUS, Test System: BONE MARROW POLYCHROMATIC ERYTHROCYTES, Species: MOUSE, Strain/Sex: NMRI/MALE, FEMALE, Route: INTRAGASTRIC) “inactive; negative”; (Test System: AMES SALMONELLA TYPHIMURIUM, Strain/Indicator: TA98, Metabolic Activation: NONE, Method: PREINCUBATION) “inactive; negative”; under setting [1], “inactive; negative”; (Test System: AMES SALMONELLA TYPHIMURIUM, Strain/Indicator: TA98, Metabolic Activation: RAT, LIVER, S-9, AROCLOR 1254, Method: PREINCUBATION) “inactive; negative”. The mutagenic call by setting is: under setting [2], “inactive; negative”; (Test System: AMES SALMONELLA TYPHIMURIUM, Strain/Indicator: TA100, Metabolic Activation: NONE, Method: PREINCUBATION) “inactive; negative”; under setting [3], “inactive; negative”; (Test System: AMES SALMONELLA TYPHIMURIUM, Strain/Indicator: TA100, Metabolic Activation: RAT, LIVER, S-9, AROCLOR 1254, Method: PREINCUBATION) “inactive; negative”; under setting [4], “inactive; negative”; under setting [5], “inactive; negative”. In addition, the mutagenic call is, setting by setting: under setting [6], “inactive; negative”; (Test System: AMES SALMONELLA TYPHIMURIUM, Strain/Indicator: TA1535, Metabolic Activation: RAT, LIVER, S-9, AROCLOR 1254, Method: PREINCUBATION) “inactive; negative”; (Test System: AMES SALMONELLA TYPHIMURIUM, Strain/Indicator: TA1535, Metabolic Activation: RAT, LIVER, S-9, AROCLOR 1254, Method: STANDARD PLATE) “inactive; negative”; under setting [7], “inactive; negative”; under setting [8], “inactive; negative”; (Test System: AMES SALMONELLA TYPHIMURIUM, Strain/Indicator: TA1537, Metabolic Activation: RAT, LIVER, S-9, AROCLOR 1254, Method: PREINCUBATION) “inactive; negative”. The mutagenic call under setting [9] was “inactive; negative”; the mutagenic call under setting [10] is “inactive; negative”; the mutagenic call (Test System: AMES SALMONELLA TYPHIMURIUM, Strain/Indicator: TA1538, Metabolic Activation: NONE, Method: STANDARD PLATE) was “inactive; negative”; the mutagenic call (Test System: AMES SALMONELLA TYPHIMURIUM, Strain/Indicator: TA1538, Metabolic Activation: RAT, LIVER, S-9, AROCLOR 1254, Method: PREINCUBATION) is “inactive; negative”; the mutagenic call (Test System: AMES SALMONELLA TYPHIMURIUM, Strain/Indicator: TA1538, Metabolic Activation: RAT, LIVER, S-9, AROCLOR 1254, Method: STANDARD PLATE) is “inactive; negative”; the mutagenic call (Test System: CHINESE HAMSTER V-79, Strain/Indicator: V-79 (HGPRT)/6-THIOGUANINE, Metabolic Activation: NONE) is “inactive; negative”. The mutagenic call (Test System: CHINESE HAMSTER V-79, Strain/Indicator: V-79 (HGPRT)/6-THIOGUANINE, Metabolic Activation: RAT, LIVER, S-9, AROCLOR 1254) is “inactive; negative”.

Consider `Cc1cc(O)c2c(c1)C(=O)C13C(=C2O)C(=O)C2C(O)C1C1C(O)C3C(=O)C3=C(O)c4c(O)cc(C)cc4C(=O)C321` (stereo unspecified), for which the mutagenic call under setting [2] is “inactive; negative”, the mutagenic call under setting [4] is “inactive; negative”, the mutagenic call under setting [8] is “inactive; negative” and the mutagenic call under setting [9] was “inactive; negative”.

On to `CCSC(=O)N(CC)C1CCCCC1`, for which the mutagenic call runs as follows: (End Point: In vitro chromosomal aberrations, Test System: Human lymphocytes, Metabolic Activation: None) “inactive; negative”; (End Point: In vitro chromosomal aberrations, Test System: Human lymphocytes, Metabolic Activation: S-9 (No additional details provided in source)) “inactive; negative”; (End Point: In vivo micronucleus, Test System: Bone marrow, Species: Mouse, Strain/Sex: CD/Female, Route: Oral) “inactive; negative”; (End Point: In vivo micronucleus, Test System: Bone marrow, Species: Mouse, Strain/Sex: CD/Male, Route: Oral) “inactive; negative”.

As to `O=[N+]([O-])c1ccc(OC2CO2)cc1` (stereo unspecified), the mutagenic call runs as follows: under setting [3], “active; positive”; under setting [6], “active; positive”.

On to `Nc1ccc2nc3ccccc3c(N)c2c1`, for which the mutagenic call was “inactive; negative” under setting [5]; “inactive; negative” (Test System: AMES SALMONELLA TYPHIMURIUM, Strain/Indicator: TA1535, Metabolic Activation: RAT, LIVER, S-9, TETRACHLOROBIPHENYL, Method: PREINCUBATION); “active; positive” under setting [7]; “active; positive” (Test System: AMES SALMONELLA TYPHIMURIUM, Strain/Indicator: TA1537, Metabolic Activation: RAT, LIVER, S-9, TETRACHLOROBIPHENYL, Method: PREINCUBATION); “inactive; negative” under setting [10]; “active; positive” (Test System: AMES SALMONELLA TYPHIMURIUM, Strain/Indicator: TA1538, Metabolic Activation: RAT, LIVER, S-9, TETRACHLOROBIPHENYL, Method: PREINCUBATION). Besides, the mutagenic call reads like this: (Test System: AMES SALMONELLA TYPHIMURIUM, Strain/Indicator: TA1977, Metabolic Activation: NONE, Method: PREINCUBATION) “active; positive”; (Test System: AMES SALMONELLA TYPHIMURIUM, Strain/Indicator: TA1977, Metabolic Activation: RAT, LIVER, S-9, TETRACHLOROBIPHENYL, Method: PREINCUBATION) “active; positive”; (Test System: AMES SALMONELLA TYPHIMURIUM, Strain/Indicator: TA1978, Metabolic Activation: RAT, LIVER, S-9, TETRACHLOROBIPHENYL, Method: PREINCUBATION) “inactive; negative”.
